Experimental data from US10538742B2, “Methods and means related to cancer stem cells” (Cambridge Enterprise Limited, priority 2004, dated 2020).

Assays:
[1] = test system: MCF-7 cells; assay: Treatment of MCF-7 cells with gamma secretase inhibitor, SP quantitated; type: cell-based, human; settings: 10 uM reserpine during SP analysis
Experimental: FIG. 10A-10D illustrates the results of a screen for anti-cancer stem cell activity using the MCF-7 cancer cell line. MCF-7 cells were incubated with 1 uM gamma secretase inhibitor (Calbiochem, San Diego, catalog number 565750) for 7 days (B, D). Control cells were cultured without a gamma secretase inhibitor (A, C). Following drug treatment, cells were washed, and then the SP was analyzed as described herein, in the presence (C, D) or absence (A, B) of 10 uM reserpine. The percentage of SP cells in the culture is given for each experimental condition.
MCF-7 cells were cultured in serum-containing media, as described above. Cells were harvested from the cultures, washed, and resuspended in gamma secretase inhibitor I. Gamma secretase inhibitor I was purchased from Calbiochem™ (San Diego, Calif.; Catalog number 565750). The gamma secretase inhibitor was added to the cultures at a final concentration of 1 uM. Cells were treated for 7 days, and the SP was quantitated as described.
The invention includes methods for evaluating compounds for anti-cancer stem cell activity by monitoring the SP cell population of a cancer cell line. In this experiment, MCF-7 cells were treated with a gamma secretase inhibitor, as described above. […] Therefore, gamma secretase inhibitors could affect cancer stem cells expressing the Notch protein. […]

[2] = test system: MCF7 breast cancer cells; assay: SP analysis by Hoechst 33342 flow cytometry, MCF7 breast cancer cells; type: cell-based, human; settings: 50 μM verapamil during Hoechst 33342 labeling
Experimental: (§1) To identify and isolate the SP cells in the cancer cell lines, the lines were cultured as described above, in either FCS or serum-free culture medium with bFGF, PDGF, or both. The cells were removed from the culture dish with trypsin and EDTA GIBCO BRL), washed, suspended at 10^6 cells per ml in DMEM containing 2% FCS (staining medium), and preincubated in 1.5-ml Eppendorf tube at 37° C. for 10 min. The cells were then labeled in the same medium at 37° C. for 90 min with 2.5 μg/ml Hoechst 33342 dye (Molecular Probes), either alone or in combination with 50 μM verapamil (Sigma), which is an inhibitor of some (verapamil-sensitive) ABC transporters (Goodell, M. A. (1996) J. Exp. Med. 183 1797-1806.). Finally, the cells were counterstained with 1 μg/ml propidium iodide to label dead cells. Then, 3-5×10^4 cells were analyzed in a FACSVantage fluorescence-activated cell sorter (Becton Dickinson) by using dual-wavelength analysis (blue, 424-444 nm; red, 675 nm) after excitation with 350-nm UV light. Propidium iodide-positive dead cells (15%) were excluded from the analysis. In the case of the C6 cell line, the SP cells or non-SP cells were sorted and cultured in serum-free culture medium with bFGF and PDGF.
(§2) They were then analyzed by flow cytometry. […] No SP cells were detected in the two human osteosarcoma lines (U-20S and SaOS-2).

[3] = test system: HeLa carcinoma cells; assay: SP analysis by Hoechst 33342 flow cytometry, HeLa carcinoma cells; type: cell-based, human; settings: 50 μM verapamil during Hoechst 33342 labeling
Experimental: as §1, §2

[4] = test system: C6 glioma cells; assay: SP analysis by Hoechst 33342 flow cytometry, C6 glioma cells; type: cell-based, rat; settings: 50 μM verapamil during Hoechst 33342 labeling
Experimental: as §1, §2

[5] = test system: B104 neuroblastoma cells; assay: SP analysis by Hoechst 33342 flow cytometry, B104 neuroblastoma cells; type: cell-based, rat; settings: 50 μM verapamil during Hoechst 33342 labeling
Experimental: as §1, §2

[6] = test system: MCF7 cells; assay: MCF7 SP cell expansion in serum-free medium with growth factors; type: cell-based, human; settings: growth factor 10 ng/ml, 7 days, in FCS less than 0.8%
Experimental: The cells were cultured in FCS (A) or serum-free medium with bFGF (B), EGF (C), or both (D) for 7 days and were analyzed by flow cytometry. The SP is outlined and shown as a % of the total cell population.
(§3) The cells were cultured in DMEM, supplemented with 10% FCS, 100 units/ml penicillin G, and 100 μg/ml streptomycin (GIBCO). In some experiments, C6 cells were cultured in serum-free DMEM containing 10 μg/ml bovine insulin, 100 μg/ml human transferrin, 100 μg/ml BSA, 60 ng/ml progesterone, 16 μg/ml putrescine, 40 ng/ml sodium selenite, 63 μg/ml N-acetylcysteine, 5 μM forskolin, 50 units/ml penicillin, and 50 μg/ml streptomycin (GIBCO), as well as one or both of 10 ng/ml bFGF and 10 ng/ml PDGF, or one or both of bFGF (10 ng/ml) and EGF (10 ng/ml).
MCF7 Cell Expansion MCF7 cells were cultured in 10% FCS (FIG. 7A) or in serum-free culture medium with bFGF (FIG. 7B), EGF (FIG. 7C), or both (FIG. 7D) for 7 days. […] Cells were stained with Hoechst dye and analyzed by flow cytometry. When cultured in FCS, less than 0.8% of the cells are SP cells. By contrast, when cultured in serum-free medium with bFGF, EGF or both, 5.1%, 3.5%, or 6.2% of the cells, respectively, are SP cells.

[7] = test system: C6 cells; assay: C6 SP cell expansion in serum-free medium with bFGF and PDGF; type: cell-based, rat; settings: 10 ng/ml growth factor, up to 3 weeks
Experimental: as §3
To identify and isolate the SP cells in the cancer cell lines, the lines were cultured as described above, in either FCS or serum-free culture medium with bFGF, PDGF, or both. […] Then, 3-5×10^4 cells were analyzed in a FACSVantage fluorescence-activated cell sorter (Becton Dickinson) by using dual-wavelength analysis (blue, 424-444 nm; red, 675 nm) after excitation with 350-nm UV light. […]
The cells were stained with Hoechst 33342 and analyzed by flow cytometry. […]
To investigate the individual roles of PDGF and bFGF in expanding C6 SP cells, C6 cells were cultured in either bFGF or PDGF for 2 weeks and then in bFGF plus PDGF for an additional 2 weeks. The cells were then stained with Hoechst 33342 and analyzed by flow cytometry. […]

Question: Which “SP in the presence of reserpine” value [1] does the source give for `COC(=O)[C@H]1[C@H]2C[C@@H]3c4[nH]c5cc(OC)ccc5c4CCN3C[C@H]2C[C@@H](OC(=O)c2cc(OC)c(OC)c(OC)c2)[C@@H]1OC` [reserpine] here?
Answer: The value was “no SP is visible”.

Question: What does the source list for `COc1ccc(CCN(C)CCCC(C#N)(c2ccc(OC)c(OC)c2)C(C)C)cc1OC` (stereo not drawn) [verapamil]?
Answer: SP (side population) on treatment with verapamil [2]: decreased greatly; SP (side population) on treatment with verapamil [3]: decreased greatly; SP (side population) on treatment with verapamil [4]: decreased greatly; SP (side population) on treatment with verapamil [5]: decreased greatly

Question: With “EGF: recombinant cytokine added to serum-free medium at 10 ng/ml” as the compound, how does the “% of the cells that are SP cells” value [6] read?
Answer: Its value is 3.5%.

Question: With PDGF as the compound, how does the “SP cells maintained or detected in culture” value [7] read?
Answer: Its value is “few SP cells could be detected”.

Question: For “bFGF: basic fibroblast growth factor, recombinant cytokine purchased from PeproTech”, which “% of the cells that are SP cells” value [6] is on record?
Answer: The value was 5.1%.

Question: What about the “SP cells maintained or detected in culture” value [7] of the same compound?
Answer: The value was “few SP cells could be detected”.
